Data: patent US11406713B2, “Xanthine oxidase inhibitor formulations” (XORTX THERAPEUTICS, INC., priority 2013, dated 2022)

Tests used:
[1] = equilibrium solubility and dissolution profile of oxypurinol in aqueous solution; format: physicochemical; details: for equilibrium solubility, dissolution and solubility: compared to oxypurinol free acid (FIG. 1)
[2] = background statement; cited from earlier work
[3] = background statement; cited from earlier work; remark: listed apart in the source

Row | equilibrium solubility, dissolution and solubility ([1]; aqueous solution, in the presence of a 1 molar equivalent of lysine, FIG. 2) | equilibrium solubility, dissolution ([1]; in choline, FIG. 4) | equilibrium solubility, dissolution and solubility ([1]; in the presence of a 1 molar equivalent of L-arginine, FIG. 3) | SMILES | equilibrium solubility, dissolution rate and solubility ([1]; using organic and or basic organic molecules, in aqueous solutions, compared to oxypurinol free acid) | solubility [2] | bioavailability [3]
1 | increased dissolution and solubility | increased dissolution | increased dissolution and solubility | O=c1[nH]c(=O)c2c[nH]nc2[nH]1 [oxypurinol, 4,6-dihydroxypyrazolo[3,4-d]pyrimidine] | increased equilibrium solubility, increased dissolution rate and solubility | poorly soluble | poorly bioavailable
2 | – | – | – | Oc1ncnc2[nH]ncc12 [Allopurinol, 4-hydroxy-pyrazolo[3,4-d]pyrimidine] | – | poorly soluble | poorly bioavailable
